Test results as given in patent publication US20250122181A1, “BENZIMIDAZOLES AS MODULATORS OF IL-17” (Janssen Pharmaceutica NV, priority 2021, published 2025).

What was measured:
[1] = target: IL-17A(FLAG-Tagged): IL-17RA(His-Tagged) (Homo sapiens, UniProt Q16552, K93Q); test: IL-17A(FLAG-Tagged): IL-17RA(His-Tagged) Binding Disruption Eu-HTRF Assay, Protocol 1; settings: Protocol 1, FLAG tagged IL-17A 2.5 nM; simple average if tested more than once
Procedure, shortened: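 IC50 came from a one-site competition fit of the acceptor/donor (665/620 nm) HTRF ratio. His-tagged IL-17RA, Eu-anti-FLAG and D2-anti-His were added after a 1 h rt compound preincubation with FLAG-tagged IL-17A dimer in PBS/0.01% Triton X-100, followed by 2 h at rt before reading.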

[2] = system: IL-17A-induced G-CSF production in human normal keratinocyte (NHK); test: NHK Assay: IL-17A-induced G-CSF production in human normal keratinocyte; assay type: cell-based; settings: Homo sapiens, Keratinocyte, 24 h, IL-17A 5 ng/mL, simple average if tested more than once
Procedure, shortened: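 Compound titrations are first mixed with recombinant human IL-17A for 1 h at room temperature. The mixture goes onto adult normal human keratinocytes (final IL-17A 5 ng/mL, 5% FBS, 0.2% DMSO) for 24 h at 37 °C. Secreted G-CSF is then measured by HTRF and IC50 fitted.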

UniProt Q16552, sequence (Q16552 with tags, fused parts or gaps K93Q): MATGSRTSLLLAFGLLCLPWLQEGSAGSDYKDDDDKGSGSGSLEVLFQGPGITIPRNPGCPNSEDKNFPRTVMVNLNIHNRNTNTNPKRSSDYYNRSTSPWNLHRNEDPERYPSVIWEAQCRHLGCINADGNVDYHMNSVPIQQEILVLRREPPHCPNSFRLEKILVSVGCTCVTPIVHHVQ

SMILES	IC50 [1] [nM]	IC50 [2] [nM]
CC(C)(OC[C@H](NC(=O)c1nonc1C1CC1)c1nc2cc(CN3C[C@@](C)(C(F)(F)F)NC3=O)ccc2[nH]1)C(F)(F)F (relative stereo) [Example 61, 4-Cyclopropyl-N—((R*)-1-(5-(((S*)-4-methyl-2-oxo-4-(trifluoromethyl)imidazolidin-1-yl)methyl)-1H-benzo[d]imidazol-2-yl)-2-((1,1,1-trifluoro-2-methylpropan-2-yl)oxy)ethyl)-1,2,5-oxadiazole-3-carboxamide]	< 50	< 50
Cc1nonc1C(=O)N[C@@H](COC(C)(C)C(F)(F)F)c1nc2cc([C@@H](C3CC3)N3C[C@@H](C(F)(F)F)NC3=O)ccc2[nH]1 [Example 2, N—((R)-1-(5-((R)-Cyclopropyl((S)-2-oxo-4-(trifluoromethyl)imidazolidin-1-yl)methyl)-1H-benzo[d]imidazol-2-yl)-2-((1,1,1-trifluoro-2-methylpropan-2-yl)oxy)ethyl)-4-methyl-1,2,5-oxadiazole-3-carboxamide]	< 50	< 50
C[C@H](c1ccc2[nH]c([C@H](COC(C)(C)C(F)(F)F)NC(=O)c3nonc3C3CC3)nc2c1)N1CC(F)(F)CNC1=O (relative stereo) [Example 25, 4-Cyclopropyl-N—((R)-1-(5-((R*)-1-(5,5-difluoro-2-oxotetrahydropyrimidin-1(2H)-yl)ethyl)-1H-benzo[d]imidazol-2-yl)-2-((1,1,1-trifluoro-2-methylpropan-2-yl)oxy)ethyl)-1,2,5-oxadiazole-3-carboxamide]	< 50	< 50
Cc1nonc1C(=O)NC(COC(C)(C)C(F)(F)F)c1nc2cc([C@@H](C)N3C[C@@H](C(F)(F)F)NC3=O)ccc2[nH]1 (single isomer, unassigned) [Example 6, 4-Methyl-N—((R*)-1-(5-((R)-1-((S)-2-oxo-4-(trifluoromethyl)imidazolidin-1-yl)ethyl)-1H-benzo[d]imidazol-2-yl)-2-((1,1,1-trifluoro-2-methylpropan-2-yl)oxy)ethyl)-1,2,5-oxadiazole-3-carboxamide]	< 50	< 50
COC[C@H](c1ccc2[nH]c(C(COC(C)(C)C(F)(F)F)NC(=O)c3nonc3C3CC3)nc2c1)N1CC(F)(F)CNC1=O (single isomer, unassigned) [Example 35, 4-Cyclopropyl-N—((R*)-1-(5-((S)-1-(5,5-difluoro-2-oxotetrahydropyrimidin-1(2H)-yl)-2-methoxyethyl)-1H-benzo[d]imidazol-2-yl)-2-((1,1,1-trifluoro-2-methylpropan-2-yl)oxy)ethyl)-1,2,5-oxadiazole-3-carboxamide]	< 50	< 50
CC(C)n1nccc1C(=O)N[C@@H](COC(C)(C)C(F)(F)F)c1nc2cc([C@@H](C3CC3)N3CC(F)(F)CNC3=O)ccc2[nH]1 [Example 24, N—((R)-1-(5-((R)-Cyclopropyl(5,5-difluoro-2-oxotetrahydropyrimidin-1(2H)-yl)methyl)-1H-benzo[d]imidazol-2-yl)-2-((1,1,1-trifluoro-2-methylpropan-2-yl)oxy)ethyl)-1-isopropyl-1H-pyrazole-5-carboxamide]	< 50	< 50
Cc1nonc1C(=O)N[C@@H](COC(C)(C)C(F)(F)F)c1nc2cc([C@@H](C)N3CC(F)(F)CNC3=O)ccc2[nH]1 (relative stereo) [Example 26, N—((R)-1-(5-((R*)-1-(5,5-Difluoro-2-oxotetrahydropyrimidin-1(2H)-yl)ethyl)-1H-benzo[d]imidazol-2-yl)-2-((1,1,1-trifluoro-2-methylpropan-2-yl)oxy)ethyl)-4-methyl-1,2,5-oxadiazole-3-carboxamide]	< 50	< 50
COC[C@H](c1ccc2[nH]c([C@@H](NC(=O)c3nonc3C)[C@@H](C)O[C@@H](C)C(F)(F)F)nc2c1)N1CC(F)(F)CNC1=O [Example 50, N-((1R,2R)-1-(5-((S)-1-(5,5-Difluoro-2-oxotetrahydropyrimidin-1(2H)-yl)-2-methoxyethyl)-1H-benzo[d]imidazol-2-yl)-2-(((S)-1,1,1-trifluoropropan-2-yl)oxy)propyl)-4-methyl-1,2,5-oxadiazole-3-carboxamide]	< 50	< 50
Cc1nonc1C(=O)N[C@@H](COC(C)(C)C(F)(F)F)c1nc2cc(CN3C[C@@](C)(C(F)(F)F)NC3=O)ccc2[nH]1 (relative stereo) [Example 58, 4-Methyl-N—((R*)-1-(5-(((S*)-4-methyl-2-oxo-4-(trifluoromethyl)imidazolidin-1-yl)methyl)-1H-benzo[d]imidazol-2-yl)-2-((1,1,1-trifluoro-2-methylpropan-2-yl)oxy)ethyl)-1,2,5-oxadiazole-3-carboxamide]	< 50	< 50

Now from value to compound, other results behind:

IC50 [1] [nM]	SMILES	IC50 [2] [nM]
< 50	[2H]C1([2H])[C@@H](C(F)(F)F)NC(=O)N1[C@H](COC)c1ccc2[nH]c([C@H](COC(C)(C)C(F)(F)F)NC(=O)c3nonc3C)nc2c1 (relative stereo) [Example 55, N—((R*)-1-(5-((S)-2-methoxy-1-((S*)-2-oxo-4-(trifluoromethyl)imidazolidin-1-yl-5,5-d2)ethyl)-1H-benzo[d]imidazol-2-yl)-2-((1,1,1-trifluoro-2-methylpropan-2-yl)oxy)ethyl)-4-methyl-1,2,5-oxadiazole-3-carboxamide]	< 50
< 50	[2H]C1([2H])[C@@H](C(F)(F)F)NC(=O)N1[C@H](COC1CC1)c1ccc2[nH]c([C@H](COC(C)(C)C(F)(F)F)NC(=O)c3nonc3C)nc2c1 (relative stereo) [Example 59, N—((R*)-1-(5-((S*)-2-Cyclopropoxy-1-((S*)-2-oxo-4-(trifluoromethyl)imidazolidin-1-yl-5,5-d2)ethyl)-1H-benzo[d]imidazol-2-yl)-2-((1,1,1-trifluoro-2-methylpropan-2-yl)oxy)ethyl)-4-methyl-1,2,5-oxadiazole-3-carboxamide]	< 50
< 50	CC(C)n1nccc1C(=O)N[C@@H](COC(C)(C)C(F)(F)F)c1nc2cc([C@@H](C)N3CC(F)(F)CNC3=O)ccc2[nH]1 (relative stereo) [Example 27, N—((R)-1-(5-((R*)-1-(5,5-Difluoro-2-oxotetrahydropyrimidin-1(2H)-yl)ethyl)-1H-benzo[d]imidazol-2-yl)-2-((1,1,1-trifluoro-2-methylpropan-2-yl)oxy)ethyl)-1-isopropyl-1H-pyrazole-5-carboxamide]	< 50
< 50	[2H]C1([2H])[C@H](C(F)(F)F)NC(=O)N1[C@@H](c1ccc2[nH]c([C@H](CC(C)(C)C(F)(F)F)NC(=O)c3nonc3C)nc2c1)C1CC1 (relative stereo) [Example 53, N—((S)-1-(5-((R)-Cyclopropyl((S*)-2-oxo-4-(trifluoromethyl)imidazolidin-1-yl-5,5-d2)methyl)-1H-benzo[d]imidazol-2-yl)-4,4,4-trifluoro-3,3-dimethylbutyl)-4-methyl-1,2,5-oxadiazole-3-carboxamide]	< 50
50 to 100	CC(C)n1nccc1C(=O)N[C@H](c1nc2c(F)cc([C@@H](C3CC3)N3C[C@@H](C(F)(F)F)NC3=O)cc2[nH]1)[C@@H](C)O[C@H](C)C(F)(F)F [Example 85, N-[(1R,2R)-1-[6-[(R)-Cyclopropyl-[(4S)-2-oxo-4-(trifluoromethyl)imidazolidin-1-yl]methyl]-4-fluoro-1H-benzimidazol-2-yl]-2-[(1R)-2,2,2-trifluoro-1-methyl-ethoxy]propyl]-2-isopropyl-pyrazole-3-carboxamide]	< 50
< 50	COCC(c1ccc2[nH]c([C@H](COC(C)(C)C(F)(F)F)NC(=O)c3nonc3C)nc2c1)N1CC(C)(C)NC1=O (single isomer, unassigned) [Example 48, N—((R)-1-(5-((R*)-1-(4,4-Dimethyl-2-oxoimidazolidin-1-yl)-2-methoxyethyl)-1H-benzo[d]imidazol-2-yl)-2-((1,1,1-trifluoro-2-methylpropan-2-yl)oxy)ethyl)-4-methyl-1,2,5-oxadiazole-3-carboxamide]	< 50
> 100	CC(C)(OC[C@H](NC(=O)c1nonc1C1CC1)c1nc2nc(CN3C[C@@H](C(F)(F)F)NC3=O)ccc2[nH]1)C(F)(F)F (relative stereo) [Example 39, 4-Cyclopropyl-N—((R*)-1-(5-(((S*)-2-oxo-4-(trifluoromethyl)imidazolidin-1-yl)methyl)-1H-imidazo[4,5-b]pyridin-2-yl)-2-((1,1,1-trifluoro-2-methylpropan-2-yl)oxy)ethyl)-1,2,5-oxadiazole-3-carboxamide]	> 100
> 100	[2H]C1([2H])[C@@H](C(F)(F)F)NC(=O)N1[C@@H](c1ccc2[nH]c([C@@H](NC(=O)c3nonc3C)[C@@H](C)O[C@@H](C)C(F)(F)F)nc2c1)C1CC1 (single isomer, unassigned) [Example 11]	> 100
